Data taken from patent US6872702B1, “Inhibitors for urokinase receptor” (Wilex AG, priority 1997, dated 2005).
Marks after values point to notes of the source that are not given here. Positions of bridges follow the written chain, without caps; N, C: chain ends. Residues, ends and D or L forms follow the SMILES beside them. No end group written: not given here.

Tests used:
recombinant human uPAR = target: T1, recombinant human uPAR (Homo sapiens, UniProt Q03405); test: Microtitre plate solid phase ATF-ligand binding test; details: 0.6 ng ATF together with 15 μg synthetic peptide per ml; FIG. 2
T1 construct: made in house; host or cells: CHO cells
Method: In addition to the flow cytometric analyses, a solid phase ATF-ligand binding test was carried out in order to examine the interactions of synthetic peptides with the uPAR. For this microtitre plates were coated with recombinant human uPAR from CHO cells (Wilhelm et al., FEBS Lett. 337 (1994), 131-134; Magdolen et al., Electrophoresis 16 (1995), 813-816) and the remaining protein-binding sites were saturated with 2% BSA (weight/vol). After incubation with the samples (0.6 ng ATF together with 15 μg synthetic peptide per ml) and several wash steps, the amount of ATF which had bound to the uPAR immobilized on the microtitre plate was determined using a biotinylated monoclonal mouse antibody against the kringle domain of ATF (No. 377, American Diagnostics, Greenwich, Conn., USA) and subsequent addition of avidin-peroxidase conjugate and 3,3′,5,5′-tetramethylbenzidine/[…] as a substrate for the peroxidase. The presence of synthetic peptides which compete with the ATF binding to uPAR reduces the conversion of the chromogenic substrate.
A series of peptides with variable sequence regions from the receptor binding region of uPA were synthesized and were increasingly shortened at the amino terminus starting with uPA10-32. The microtitre plate solid phase binding test described in 1.4 was used to determine the inhibitory capacity of these peptides.

[1] = Stability of binding activity after long storage in aqueous solution or repeated freeze/thaw cycles; assay type: physicochemical
[2] = system: human breast cancer cells MDA-MB-231; test: Primary tumour growth of MDA-MB-231 cells injected into naked mice; assay type: in vivo, Balbc/3 naked mice; details: 10 mg/kg intraperitoneally twice weekly
Method: 6×10^6 human breast cancer cells MDA-MB-231 (Price et al., Cancer Res. 50 (1990), 717-721) in a total volume of 300 μl were injected into the right side of 4-6 week old Balbc/3 naked mice. Before injection the cancer cells were mixed with 200 μg of the cyclic uPA peptides cyclo^19,31uPA19-31 (SEQ ID NO: 3) and Cyclo^21,29[Cys21,29]uPA21-30 (SEQ ID NO: 4) in PBS, pH 7.4. Subsequently the mice were treated twice weekly intraperitoneally with the respective peptide at a dose of 10 mg/kg body weight (injection volume 300 μl). The volume of the primary tumours which occurred in the mice in cm^3 was determined after 1, 2, 3 and 5 weeks by measuring the two largest diameters. The control mice were administered PBS pH 7.4. Each group was composed of 5 mice. The results for the peptide cyclo^19,31uPA19-31 (SEQ ID NO: 3) are shown in Tab. 2.

[3] = target: T2, cell surface-associated uPAR (Homo sapiens, UniProt Q03405); test: Flow cytometry: inhibition of binding of FITC-conjugated pro-uPA to cell surface-associated uPAR on PMA-stimulated U937 cells
T2 construct: source of cellular native uPAR; endogenous in cells; host or cells: U937 cells stimulated with PMA
Method: The ability of the synthetic peptides to inhibit the uPA/uPAR interaction was determined by means of flow cytometry on a FACScan flow cytometer (Becton-Dickinson, Heidelberg, Germany) using the human promyeloid cell line U937 as a source of cellular native uPAR (Chuchulowski et al., Fibrinolysis 6, Suppl. 4 (1992), 95-102; Magdolen et al., (1996), supra). The U937 cells were stimulated with […] phorbol-12-myristate-13-acetate (PMA) for 48 h. After stimulation with PMA the U937 cells expressed considerable amounts of cell surface-associated uPAR.
The stimulated cells were treated for 1 min at room temperature with 50 mM glycine HCl, 0.1 NaCl, pH 3.6 in order to dissociate endogenous receptor-bound uPA. Subsequently the acidic buffer was neutralized with 0.5 M HEPES-100 mM NaCl, pH 7.5. […] Before the analysis, propidium iodide, a fluorescent dye which specifically binds double-stranded DNA, was added to each sample in order to determine the viability of the analysed U937 cells. […]
For this the purified peptides were analysed by mass spectroscopy, quantified by amino acid analysis and then tested by flow cytometry according to the method described in 1.3 for their ability to inhibit the binding of fluorescent-labelled pro-uPA to the uPA receptor on U937 cells. […]

T1 sequence (Q03405 23-299 limits assumed): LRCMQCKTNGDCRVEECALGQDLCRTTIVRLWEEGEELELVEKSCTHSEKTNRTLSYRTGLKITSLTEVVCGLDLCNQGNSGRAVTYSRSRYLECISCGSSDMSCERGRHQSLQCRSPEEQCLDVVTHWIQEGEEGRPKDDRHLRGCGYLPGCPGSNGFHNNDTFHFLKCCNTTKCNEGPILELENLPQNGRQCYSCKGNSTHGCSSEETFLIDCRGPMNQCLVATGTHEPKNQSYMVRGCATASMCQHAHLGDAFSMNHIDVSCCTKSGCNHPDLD
T2 sequence (Q03405 23-305): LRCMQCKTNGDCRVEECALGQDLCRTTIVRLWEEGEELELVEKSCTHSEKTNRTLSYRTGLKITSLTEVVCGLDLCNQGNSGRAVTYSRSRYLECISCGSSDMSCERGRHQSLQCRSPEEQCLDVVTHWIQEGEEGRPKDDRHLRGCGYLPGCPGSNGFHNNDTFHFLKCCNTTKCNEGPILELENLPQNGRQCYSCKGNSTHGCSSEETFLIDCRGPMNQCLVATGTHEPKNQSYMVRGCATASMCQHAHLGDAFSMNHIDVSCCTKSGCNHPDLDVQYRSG

| Compound | inhibition of the binding of ATF to uPAR / uPAR binding capacity (recombinant human uPAR) | other results |
| --- | --- | --- |
| uPA10-32: linear peptide from the receptor binding region of uPA, amino acids 10-32 (NCDCLNGGTCVSNKYFSNIHWCN) | effectively inhibit | – |
| cyclo^19-31uPA19-31: cyclic peptide uPA19-31 with an intramolecular disulfide bond between the cysteine residues at positions 19 and 31 (CVSNKYFSNIHWC; disulfide 1-13) | still able to inhibit the binding of uPA to the uPA receptor | stability of binding activity compared with linear peptide uPA19-31 [1]: significantly more stable; volume of the primary tumours ([2]; week 1): 0 cm^3; volume of the primary tumours ([2]; week 2): 0.086 ± 0.047 cm^3; volume of the primary tumours ([2]; week 3): 0.303 ± 0.129 cm^3; volume of the primary tumours ([2]; week 5, p = 0.02): 0.62 ± 0.21* cm^3 |
| CC[C@H](C)[C@H](NC(=O)[C@H](CC(N)=O)NC(=O)[C@H](CO)NC(=O)[C@H](Cc1ccccc1)NC(=O)[C@H](Cc1ccc(O)cc1)NC(=O)[C@H](CCCCN)NC(=O)[C@H](CC(N)=O)NC(=O)[C@H](CO)NC(=O)[C@@H](NC(=O)[C@@H](N)CS)C(C)C)C(=O)N[C@@H](Cc1c[nH]cn1)C(=O)N[C@@H](Cc1c[nH]c2ccccc12)C(=O)N[C@@H](CS)C(=O)O [uPA19-31] (H-CVSNKYFSNIHWC-OH; N-terminus and C-terminus assumed) | higher affinity than the longer peptide uPA16-32 | – |
| uPA12-31: linear peptide from the receptor binding region of uPA, amino acids 12-31 as printed (DCLNGGTCVSNKYFSNIHWC) | effectively inhibit | – |
| CC[C@H](C)[C@H](NC(=O)[C@H](CC(N)=O)NC(=O)[C@H](CO)NC(=O)[C@H](Cc1ccccc1)NC(=O)[C@H](Cc1ccc(O)cc1)NC(=O)[C@H](CCCCN)NC(=O)[C@H](CC(N)=O)NC(=O)[C@H](CO)NC(=O)[C@@H](NC(=O)[C@H](CS)NC(=O)[C@@H](NC(=O)CNC(=O)CN)[C@@H](C)O)C(C)C)C(=O)N[C@@H](Cc1c[nH]cn1)C(=O)N[C@@H](Cc1c[nH]c2ccccc12)C(=O)N[C@@H](CS)C(=O)N[C@@H](CC(N)=O)C(=O)O [uPA16-32] (H-GGTCVSNKYFSNIHWCN-OH; N-terminus assumed) | effectively inhibit | fold higher affinity to uPAR compared to uPA12-32 [C19A] and clone 20 peptide [3]: 4- to 5 fold; molar excess resulting in a 50% inhibition of the binding of uPA ([3]; FITC-conjugated pro-uPA): approximately 3,000 molar excess |
| uPA20-34: linear peptide from the receptor binding region of uPA, amino acids 20-34 (VSNKYFSNIHWCNCP) | does not bind at all | – |
| uPA14-32: linear peptide from the receptor binding region of uPA, amino acids 14-32 (LNGGTCVSNKYFSNIHWCN) | effectively inhibit | – |
